compound: COc1cc([C@@H]2c3cc4c(cc3[C@@H](O[C@@H]3O[C@@H]5CO[C@@H](C)O[C@H]5[C@H](O)[C@H]3O)[C@H]3COC(=O)[C@H]23)OCO4)cc(OC)c1O [Etoposide] + CS(=O)(=O)CCNCc1ccc(-c2ccc3ncnc(Nc4ccc(OCc5cccc(F)c5)c(Cl)c4)c3c2)o1 [Lapatinib] (partner 2 µM); assay: relative viability (nuclei count vs DMSO), 5 days (fraction); higher = more cells survive; conditions: first compound 0.01 µM
How it was run: (§1)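 Lung cancer cell lines in 1536-well plates got either a single drug or a fixed anchor-drug dose together with five library-drug doses (not always all listed) in √10 steps, by pin tool, on the day after seeding. Nuclei were counted after 5 days, and relative viability is the treated-to-vehicle ratio of nuclei counts. Values are medians of duplicate plates.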

| Cell Line | relative viability |
| --- | --- |
| NCI-H2085 | 0.777 |
| Calu-6 | 1.04 |
| HCC-366 | 0.978 |
| NCI-H1666 | 0.616 |
| NCI-H647 | 1.05 |
| LK-2 | 0.949 |
| NCI-H2126 | 0.784 |
| SK-MES-1 | 0.461 |
| H3255 | 0.234 |
| COR-L23 | 0.854 |
| COR-L 105 | 0.271 |
| IA-LM | 0.704 |
| LOU-NH91 | 0.759 |
| NCI-H2170 | 0.294 |
| NCI-H3122 | 1.09 |
| HOP-62 | 0.973 |
| HCC-44 | 0.989 |
| A549 | 0.957 |
| LU99A | 1.09 |
| BEN | 0.81 |
| HARA | 0.591 |
| HCC-78 | 1.03 |
| NCI-H2009 | 0.885 |
| A-427 | 1.04 |
| NCI-H460 | 0.726 |
| NCI-H727 | 0.844 |

same assay, conditions: first compound 0.03162 µM

| Cell Line | relative viability |
| --- | --- |
| NCI-H2085 | 0.73 |
| Calu-6 | 0.903 |
| HCC-366 | 0.882 |
| NCI-H1666 | 0.692 |
| NCI-H647 | 0.984 |
| LK-2 | 1.23 |
| NCI-H2126 | 0.756 |
| SK-MES-1 | 0.538 |
| H3255 | 0.241 |
| COR-L23 | 1.06 |
| COR-L 105 | 0.393 |
| IA-LM | 0.614 |
| LOU-NH91 | 0.788 |
| NCI-H2170 | 0.264 |
| NCI-H3122 | 0.998 |
| HOP-62 | 1.05 |
| HCC-44 | 0.953 |
| A549 | 0.811 |
| LU99A | 1.18 |
| BEN | 0.733 |
| HARA | 0.811 |
| HCC-78 | 0.836 |
| LCLC-97TM1 | 1.23 |
| NCI-H2009 | 1.08 |
| A-427 | 1.06 |
| NCI-H460 | 0.732 |
| NCI-H727 | 0.937 |

same assay, conditions: first compound 0.1 µM

| Cell Line | relative viability |
| --- | --- |
| NCI-H2085 | 0.534 |
| Calu-6 | 1.13 |
| HCC-366 | 0.382 |
| NCI-H1666 | 0.371 |
| NCI-H647 | 0.797 |
| LK-2 | 0.566 |
| NCI-H2126 | 0.52 |
| SK-MES-1 | 0.368 |
| H3255 | 0.228 |
| COR-L23 | 0.92 |
| COR-L 105 | 0.26 |
| IA-LM | 0.78 |
| LOU-NH91 | 0.576 |
| NCI-H3122 | 0.97 |
| HOP-62 | 0.833 |
| HCC-44 | 1.06 |
| A549 | 0.537 |
| LU99A | 0.521 |
| HARA | 0.675 |
| HCC-78 | 0.206 |
| LCLC-97TM1 | 0.465 |
| NCI-H2009 | 0.856 |
| A-427 | 0.807 |
| NCI-H460 | 0.394 |
| NCI-H727 | 0.511 |

same assay, conditions: first compound 0.3162 µM

| Cell Line | relative viability |
| --- | --- |
| NCI-H2085 | 0.599 |
| Calu-6 | 0.435 |
| HCC-366 | 0.0593 |
| NCI-H1666 | 0.305 |
| NCI-H647 | 0.185 |
| LK-2 | 0.555 |
| NCI-H2126 | 0.595 |
| SK-MES-1 | 0.426 |
| H3255 | 0.262 |
| COR-L23 | 0.588 |
| COR-L 105 | 0.343 |
| IA-LM | 0.666 |
| LOU-NH91 | 0.619 |
| NCI-H2170 | 0.292 |
| NCI-H3122 | 0.91 |
| HOP-62 | 0.533 |
| HCC-44 | 0.833 |
| A549 | 0.244 |
| LU99A | 0.347 |
| BEN | 0.663 |
| HARA | 0.56 |
| HCC-78 | 0.134 |
| LCLC-97TM1 | 0.23 |
| NCI-H2009 | 0.408 |
| A-427 | 0.604 |
| NCI-H460 | 0.0299 |
| NCI-H727 | 0.665 |

same assay, conditions: first compound 1 µM

| Cell Line | relative viability |
| --- | --- |
| NCI-H2085 | 0.372 |
| Calu-6 | 0.284 |
| HCC-366 | 0.0394 |
| NCI-H1666 | 0.28 |
| NCI-H647 | 0.0906 |
| LK-2 | 0.217 |
| NCI-H2126 | 0.383 |
| SK-MES-1 | 0.272 |
| H3255 | 0.196 |
| COR-L23 | 0.14 |
| COR-L 105 | 0.356 |
| IA-LM | 0.301 |
| LOU-NH91 | 0.347 |
| NCI-H2170 | 0.23 |
| NCI-H3122 | 0.451 |
| HOP-62 | 0.187 |
| HCC-44 | 0.245 |
| A549 | 0.111 |
| LU99A | 0.167 |
| BEN | 0.458 |
| HARA | 0.134 |
| HCC-78 | 0.202 |
| LCLC-97TM1 | 0.124 |
| NCI-H2009 | 0.247 |
| A-427 | 0.196 |
| NCI-H460 | 0.0144 |
| NCI-H727 | 0.589 |

compound: CC1=C(N=C(N=C1N)[C@H](CC(=O)N)NC[C@@H](C(=O)N)N)C(=O)N[C@@H]([C@H](C2=CN=CN2)OC3C(C(C(C(O3)CO)O)O)OC4C(C(C(C(O4)CO)O)OC(=O)N)O)C(=O)N[C@H](C)[C@H]([C@H](C)C(=O)N[C@@H]([C@@H](C)O)C(=O)NCCC5=NC(=CS5)C6=NC(=CS6)C(=O)NCCC[S+](C)C)O [Bleomycin] + CS(=O)(=O)N1CCN(Cc2cc3nc(-c4cccc5[nH]ncc45)nc(N4CCOCC4)c3s2)CC1 [Pictilisib] (partner 1 µM); assay: as above; conditions: first compound 0.01 µM; main component drawn
How it was run: as §1

| Cell Line | relative viability |
| --- | --- |
| NCI-H2085 | 0.427 |
| Calu-6 | 0.575 |
| HCC-366 | 0.133 |
| NCI-H1666 | 0.428 |
| NCI-H647 | 0.251 |
| LK-2 | 0.517 |
| NCI-H2126 | 0.498 |
| SK-MES-1 | 0.432 |
| H3255 | 0.442 |
| COR-L23 | 0.705 |
| COR-L 105 | 0.412 |
| IA-LM | 0.331 |
| LOU-NH91 | 0.53 |
| NCI-H2170 | 0.376 |
| NCI-H3122 | 0.642 |
| HOP-62 | 0.427 |
| HCC-44 | 0.385 |
| A549 | 0.4 |
| LU99A | 0.249 |
| BEN | 0.573 |
| HARA | 0.333 |
| HCC-78 | 0.201 |
| LCLC-97TM1 | 0.141 |
| NCI-H2009 | 0.768 |
| A-427 | 0.58 |
| NCI-H460 | 0.307 |
| NCI-H727 | 0.375 |

same assay, conditions: first compound 0.03162 µM; main component drawn

| Cell Line | relative viability |
| --- | --- |
| NCI-H2085 | 0.386 |
| Calu-6 | 0.537 |
| HCC-366 | 0.128 |
| NCI-H1666 | 0.375 |
| NCI-H647 | 0.254 |
| LK-2 | 0.489 |
| NCI-H2126 | 0.471 |
| SK-MES-1 | 0.274 |
| H3255 | 0.414 |
| COR-L23 | 0.7 |
| COR-L 105 | 0.43 |
| IA-LM | 0.29 |
| LOU-NH91 | 0.493 |
| NCI-H2170 | 0.304 |
| NCI-H3122 | 0.591 |
| HOP-62 | 0.31 |
| HCC-44 | 0.477 |
| A549 | 0.389 |
| LU99A | 0.233 |
| BEN | 0.57 |
| HARA | 0.557 |
| HCC-78 | 0.213 |
| LCLC-97TM1 | 0.119 |
| NCI-H2009 | 0.672 |
| A-427 | 0.488 |
| NCI-H460 | 0.285 |
| NCI-H727 | 0.299 |

same assay, conditions: first compound 0.1 µM; main component drawn

| Cell Line | relative viability |
| --- | --- |
| NCI-H2085 | 0.364 |
| Calu-6 | 0.385 |
| HCC-366 | 0.09 |
| NCI-H1666 | 0.391 |
| NCI-H647 | 0.191 |
| LK-2 | 0.437 |
| NCI-H2126 | 0.501 |
| SK-MES-1 | 0.307 |
| H3255 | 0.431 |
| COR-L23 | 0.433 |
| COR-L 105 | 0.406 |
| IA-LM | 0.356 |
| LOU-NH91 | 0.432 |
| NCI-H2170 | 0.297 |
| NCI-H3122 | 0.577 |
| HOP-62 | 0.389 |
| HCC-44 | 0.271 |
| A549 | 0.323 |
| LU99A | 0.191 |
| BEN | 0.54 |
| HARA | 0.428 |
| HCC-78 | 0.204 |
| LCLC-97TM1 | 0.141 |
| NCI-H2009 | 0.749 |
| A-427 | 0.492 |
| NCI-H460 | 0.244 |
| NCI-H727 | 0.268 |

same assay, conditions: first compound 0.3162 µM; main component drawn

| Cell Line | relative viability |
| --- | --- |
| NCI-H2085 | 0.29 |
| Calu-6 | 0.179 |
| HCC-366 | 0.0658 |
| NCI-H1666 | 0.183 |
| NCI-H647 | 0.105 |
| LK-2 | 0.287 |
| NCI-H2126 | 0.391 |
| SK-MES-1 | 0.201 |
| H3255 | 0.287 |
| COR-L23 | 0.129 |
| COR-L 105 | 0.278 |
| IA-LM | 0.211 |
| LOU-NH91 | 0.392 |
| NCI-H2170 | 0.256 |
| NCI-H3122 | 0.243 |
| HOP-62 | 0.115 |
| HCC-44 | 0.211 |
| A549 | 0.0899 |
| LU99A | 0.152 |
| BEN | 0.389 |
| HARA | 0.27 |
| HCC-78 | 0.199 |
| LCLC-97TM1 | 0.0993 |
| NCI-H2009 | 0.324 |
| A-427 | 0.155 |
| NCI-H460 | 0.0358 |
| NCI-H727 | 0.239 |

same assay, conditions: first compound 1 µM; main component drawn

| Cell Line | relative viability |
| --- | --- |
| NCI-H2085 | 0.293 |
| Calu-6 | 0.177 |
| HCC-366 | 0.0477 |
| NCI-H1666 | 0.256 |
| NCI-H647 | 0.0791 |
| LK-2 | 0.278 |
| NCI-H2126 | 0.365 |
| SK-MES-1 | 0.116 |
| H3255 | 0.276 |
| COR-L23 | 0.0958 |
| COR-L 105 | 0.276 |
| IA-LM | 0.215 |
| LOU-NH91 | 0.325 |
| NCI-H2170 | 0.262 |
| NCI-H3122 | 0.36 |
| HOP-62 | 0.103 |
| HCC-44 | 0.246 |
| A549 | 0.0479 |
| LU99A | 0.137 |
| BEN | 0.435 |
| HARA | 0.184 |
| HCC-78 | 0.159 |
| LCLC-97TM1 | 0.0953 |
| NCI-H2009 | 0.405 |
| A-427 | 0.174 |
| NCI-H460 | 0.1 |
| NCI-H727 | 0.357 |
